Measurements from patent publication US9493468B2, “Antifungal 5,6-dihydro-4H-pyrrolo[1,2-a][1,4]benzo-diazepines and 6H-pyrrolo[1,2-a][1,4]benzodiazepines substituted with heterocyclic derivatives” (Janssen Pharmaceutica NV, priority 2011, dated 2016).

What was measured:
Candida parapsilosis = assay: Antifungal activity in vitro, resazurin growth inhibition: Candida parapsilosis (B66126); type: cell-based; settings: for IC50: Lodderomyces parapsilosis, read-out: Inf. D: Candida parapsilosis B66126, pIC50 (converted)
Method in brief: (§1)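 Resazurin conversion to fluorescent resorufin (ex 550/em 590 nm) served as the growth readout. Compounds spanned 2- or 4-fold serial dilutions with 64 μM top in-test concentration; inoculum 10^3 cfu per well in MOPS-buffered RPMI-1640 (pH 7.0, 2% glucose). Incubation species-dependent, dermatophytes at 27° C. for ≥1 week.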

Scedosporium apiospermum = assay: Antifungal activity in vitro, resazurin growth inhibition: Scedosporium apiospermum (IHEM3817); type: cell-based; settings: for IC50: read-out: Inf. H: Scedosporium apiospermum IHEM3817, pIC50 (converted)
Method in brief: as §1

Rhizomucor miehei = assay: Antifungal activity in vitro, resazurin growth inhibition: Rhizomucor miehei (IHEM13391); type: cell-based; settings: for IC50: read-out: Inf. K: Rhizomucor miehei IHEM13391, pIC50 (converted)
Method in brief: as §1

Microsporum canis = assay: Antifungal activity in vitro, resazurin growth inhibition: Microsporum canis (B68128); type: cell-based; settings: for IC50: read-out: Inf. B: Microsporum canis B68128, pIC50 (converted)
Method in brief: (§2)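 Dermatophytes incubated at 27° C. for one week or more with compound, max 64 μM, in RPMI-1640/MOPS pH 7.0±0.1, 10^3 cfu/well. Viability by resazurin-to-resorufin fluorescence, 550/590 nm.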

Aspergillus fumigatus = assay: Antifungal activity in vitro, resazurin growth inhibition: Aspergillus fumigatus (B42928); type: cell-based; settings: for IC50: read-out: Inf. E: Aspergillus fumigatus B42928, pIC50 (converted)
Method in brief: as §1

Scedosporium prolificans = assay: Antifungal activity in vitro, resazurin growth inhibition: Scedosporium prolificans (IHEM21157); type: cell-based; settings: for IC50: Lomentospora prolificans, read-out: Inf. I: Scedosporium prolificans IHEM21157, pIC50 (converted)
Method in brief: as §1

[1] = system: Trichophyton mentagrophytes; assay: Antifungal activity in vitro, resazurin growth inhibition: Trichophyton mentagrophytes (B70554); type: cell-based; settings: for IC50: read-out: Inf. G: Trichophyton mentagrophytes B70554, pIC50 (converted)
Method in brief: as §2

Sporothrix schenkii = assay: Antifungal activity in vitro, resazurin growth inhibition: Sporothrix schenkii (B62482); type: cell-based; settings: for IC50: read-out: Inf. A: Sporothrix schenkii B62482, pIC50 (converted)
Method in brief: as §1

Trichophyton rubrum = assay: Antifungal activity in vitro, resazurin growth inhibition: Trichophyton rubrum (B68183); type: cell-based; settings: for IC50: read-out: Inf. C: Trichophyton rubrum B68183, pIC50 (converted)
Method in brief: as §2

Rhizopus oryzae = assay: Antifungal activity in vitro, resazurin growth inhibition: Rhizopus oryzae (IHEM5223); type: cell-based; settings: for IC50: Rhizopus arrhizus, read-out: Inf. J: Rhizopus oryzae IHEM5223, pIC50 (converted)
Method in brief: as §1

Cryptococcus neoformans = assay: Antifungal activity in vitro, resazurin growth inhibition: Cryptococcus neoformans (B66663); type: cell-based; settings: for IC50: read-out: Inf. F: Cryptococcus neoformans B66663, pIC50 (converted)
Method in brief: as §1

| IC50 (Candida parapsilosis) [nM] | IC50 (Scedosporium apiospermum) [nM] | IC50 (Rhizomucor miehei) [nM] | IC50 (Microsporum canis) [nM] | IC50 (Aspergillus fumigatus) [nM] | IC50 (Scedosporium prolificans) [nM] | IC50 [1] [nM] | IC50 (Sporothrix schenkii) [nM] | IC50 (Trichophyton rubrum) [nM] | melting point [°C] | IC50 (Rhizopus oryzae) [nM] | IC50 (Cryptococcus neoformans) [nM] | Structure (SMILES) | further results |
| --- | --- | --- | --- | --- | --- | --- | --- | --- | --- | --- | --- | --- | --- |
| > 64600 | 2140 | > 64600 | 126 | 1350 | 3020 | 229 | > 64600 | 42.7 | 158.2 to 160.6 | > 64600 | > 64600 | FC(F)(F)c1cc(C2=NCc3c(Cl)cccc3-n3cccc32)ccn1 [Compound 3] |  |
| > 64600 | 6030 | 7940 | 316 | 2690 | 309 | 107 | 661 | 69.2 | 159.9 to 160.8 | > 64600 | 3550 | Clc1cccc2c1-n1cccc1C(c1cc3ccccc3o1)=NC2 [Compound 5] |  |
| 9770 | 513 | 7080 | 174 | 302 | 214 | 245 | 2750 | 64.6 | 175.2 to 177.3 | > 64600 | 759 | Cc1cccc2cc(C3=NCc4c(Cl)cccc4-n4cccc43)oc12 [Compound 7] |  |
| 794 | 10200 | 44700 | 427 | 490 | 437 | 178 | 14100 | 38.9 | 163.9 to 164.1 | > 15800 | 4270 | Clc1cccc2c1CN=C(c1ccc3occc3c1)c1cccn1-2 [Compound 8] |  |
|  |  |  |  |  |  |  |  |  |  |  |  | Cc1nc2cc(C3=NCc4c(Cl)cccc4-n4cccc43)ccc2s1 [Compound 191] | Inf. D: Candida parapsilosis B66126, pIC50 (Candida parapsilosis): <4.19; Inf. H: Scedosporium apiospermum IHEM3817, pIC50 (Scedosporium apiospermum): 4.88; Inf. K: Rhizomucor miehei IHEM13391, pIC50 (Rhizomucor miehei): <4.19; Inf. B: Microsporum canis B68128, pIC50 (Microsporum canis): 5.69; Inf. E: Aspergillus fumigatus B42928, pIC50 (Aspergillus fumigatus): 5.42; Inf. I: Scedosporium prolificans IHEM21157, pIC50 (Scedosporium prolificans): 6.35; Inf. G: Trichophyton mentagrophytes B70554, pIC50 [1]: 5.80; Inf. A: Sporothrix schenkii B62482, pIC50 (Sporothrix schenkii): 4.75; Inf. C: Trichophyton rubrum B68183, pIC50 (Trichophyton rubrum): 6.18; Inf. J: Rhizopus oryzae IHEM5223, pIC50 (Rhizopus oryzae): <4.19; Inf. F: Cryptococcus neoformans B66663, pIC50 (Cryptococcus neoformans): 5.00 |
|  |  |  |  |  |  |  |  |  |  |  |  | Cn1ccc2ccc(C3=NCc4c(Cl)cccc4-n4cccc43)cc21 [Compound 196] | Inf. D: Candida parapsilosis B66126, pIC50 (Candida parapsilosis): 5.25; Inf. H: Scedosporium apiospermum IHEM3817, pIC50 (Scedosporium apiospermum): 4.35; Inf. K: Rhizomucor miehei IHEM13391, pIC50 (Rhizomucor miehei): <4.19; Inf. B: Microsporum canis B68128, pIC50 (Microsporum canis): 6.36; Inf. E: Aspergillus fumigatus B42928, pIC50 (Aspergillus fumigatus): 5.65; Inf. I: Scedosporium prolificans IHEM21157, pIC50 (Scedosporium prolificans): 5.72; Inf. G: Trichophyton mentagrophytes B70554, pIC50 [1]: 6.17; Inf. A: Sporothrix schenkii B62482, pIC50 (Sporothrix schenkii): 5.00; Inf. C: Trichophyton rubrum B68183, pIC50 (Trichophyton rubrum): 6.77; Inf. J: Rhizopus oryzae IHEM5223, pIC50 (Rhizopus oryzae): <4.19; Inf. F: Cryptococcus neoformans B66663, pIC50 (Cryptococcus neoformans): 5.84 |

| Structure (SMILES) | IC50 (Candida parapsilosis) [nM] | IC50 (Scedosporium apiospermum) [nM] | IC50 (Rhizomucor miehei) [nM] | IC50 (Microsporum canis) [nM] | IC50 (Aspergillus fumigatus) [nM] | IC50 (Scedosporium prolificans) [nM] | IC50 [1] [nM] | IC50 (Sporothrix schenkii) [nM] | IC50 (Trichophyton rubrum) [nM] | melting point [°C] | IC50 (Rhizopus oryzae) [nM] | IC50 (Cryptococcus neoformans) [nM] | further results |
| --- | --- | --- | --- | --- | --- | --- | --- | --- | --- | --- | --- | --- | --- |
| Cc1cccc2c1CNC(c1cc3ccccc3s1)c1cccn1-2.Cl (stereo not shown) [Compound 1] | 45700 | > 64600 | > 64600 | 447 | 2000 | 1820 | 204 | 3020 | 67.6 | 242.4 to 247.7 | > 64600 | > 64600 |  |
